Where two headings read alike, the source gives them in different places. Marks after values point to notes of the source that are not given here.
Tests used:
[1] = MTS cytotoxicity assay in H4-APP751 cells; conditions: human
Method: Cytotoxicity was evaluated using CellTiter 96® AQueous One Solution Cell Proliferation Assay (MTS Assay, Promega, Madison, WI) according to the manufacturer’s protocol.

[2] = MTS cytotoxicity assay in rat primary neocortical cultures; format: cell-based; conditions: CD, primary neocortical cultures from E17 rat embryos
Method: Primary cultures were established from the neocortex of E17 rat embryos obtained from timed pregnant CD rats (Charles River Laboratories, Wilmington, MA). Following tissue dissection and trituration, the cultures were suspended in Neurobasal™ medium (Invitrogen) supplemented with 10% horse serum (Sigma-Aldrich) and 520 μM L-glutamine. Cells were plated at 50,000 cells/well in Costar 96-well poly-D-lysine-coated plates. Following incubation at 37°C and 5% CO2 for 4–5 h, the plating medium was exchanged with Neurobasal® medium with 2% B-27® supplement (Invitrogen), 520 μM of L-glutamine, and 1% penicillin-streptomycin. […] Cultures were incubated with compound for 24 h for analysis of Aβ peptides by sandwich ELISA and cytotoxicity by MTS assay.

γ-secretase (EphA4) = test: EphA4 CTF accumulation in rat primary neocortical cultures (Western blot); conditions: 24 h, up to 10 μM
Method: Protein concentration of the lysate was determined by the BCA method, and 30 μg of total protein were loaded on a 10% Bis-Tris gel (Invitrogen). EphA4 CTF was visualized using an anti-EphA4-CTF antibody (Abnova, Walnut, CA) and an IRDye800CW® secondary antibody (Rockland Immunochemicals, Inc., Gilbertsville, PA). Detection was performed using an Odyssey scanner (LiCor Biosciences) and blots quantified using ImageJ software (available at http://rsbweb.nih.gov/ij).

Tg2576 mice [3] = test: Contextual fear conditioning assay
Method: Animals in the food formulation groups were maintained on the compound formulated diets. The training session on day 1 consisted of the following sequence: 3 min acclimation to the test chamber (Kinder Scientific, Poway, CA), 2 s 1.5 mA foot shock, 2 min wait period, another 2 s 1.5 mA foot shock, followed by a final 1 min wait period. On day 2, testing consisted of returning the animals to the chamber for 5 min and the total time spent freezing was measured by an automated software system (Kinder Scientific). […] Percentage of time spent freezing for each mouse was calculated using the formula: (number of seconds with zero beam breaks/300) X 100.

γ-secretase = test: APP CTF accumulation in H4-APP751 cell lysates (Western blot); format: cell-based, human; conditions: H4-APP751 cells, 16 h
Source text: Cells were lysed in situ and the resulting lysate cleared of nuclei by centrifugation, as described elsewhere. Samples were fractionated by SDS-PAGE on a 12% NuPage gel (Invitrogen), transferred to a nitrocellulose membrane, and immunoblotted with an anti-APP-CTF antibody (Sigma-Aldrich).

[4] = system: Aph1AL containing γ-secretase complexes; test: Cell-free AICD production from APP β-CTF (Western blot); format: biochemical, murine; conditions: up to 100 μM
Method: DAPT was used as a reference positive control for the assay. For each assay condition, a 5-μL microsomal fraction, containing 1% CHAPSO (3-[(3-cholamidopropyl)dimethylammonio]-2-hydroxy-1-propanesulfonate) from murine embryonic fibroblasts (MEF) lacking the Aph-1A, Aph-1B, and Aph-1C genes (triple knock out) and rescued with Aph-1AL, was prepared in a reaction mixture of 5 μL substrate (recombinant APP β-CTF 3-Flag-tagged) at 0.8 μM, 0.0125% phosphatidylethanolamine, 0.1%, phosphatidylcholine, 0.05% sphingomyelin, and 8.9 μL PIPES (piperazine-N,N′-bis[−ethanesulfonic acid]) buffer. […] For detection of AICD, one-half of the reaction mixture was purified by a methanol-chloroform extraction in order to remove lipids and hydrophobic proteins (e.g., APP β-CTF). This purified fraction was further analyzed by SDS-PAGE and Western blotting. AICD was detected with an ANTI-FLAG® antibody (Sigma-Aldrich). The other half of the reaction mixture was used to analyze the levels of Aβ1-40 and Aβ1-42 by AlphaLisa (Perkin Elmer, Waltham, MA).

Tg2576 mice [5] = conditions: mean (sem)
Source text: Male Tg2576 and WT mice were both derived from crosses of male Tg2576 mice and female B6SJLF1 mice (Taconic) and were singly housed upon arrival. […] Some animals were euthanized as described above. For histological studies, a subset of mice were euthanized by CO2 asphyxiation and transcardially perfused with cold 0.9% NaCl. […] The left cerebral hemisphere was cut into 2 pieces, weighed, and frozen.
The right hemispheres were sectioned at 20 μm in the sagittal plane. From 12 levels, 7 sections were retained and processed. Aβ plaque load was quantified in sections doubly stained by immunohistochemistry with 6E10 antibody (N-terminal human Aβ, aa 1–16) and by ThioflavinS. Astrocytes were immunostained using a primary rabbit polyclonal antibody against GFAP (Dako, Glostrup, Denmark) and a fluorescently labelled secondary Cy2 antibody (Jackson ImmunoResearch Laboratories, West Grove, PA). Activated microglia were immunostained using a rat anti-murine CD11b primary antibody (AbD Serotec, Kidlington, UK) and a fluorescently labelled secondary Cy3 antibody (Jackson ImmunoResearch Laboratories). Astrocytes and microglia were labelled in a double incubation and sections were counterstained with DAPI to visualize cell nuclei.
Hippocampus and neocortex were measured separately, and the percent area of immunoreactivity or ThioflavinS staining per brain region was evaluated using automated image analysis software (Image Pro Plus, v. 6.2, Media Cybernetics, Bethesda, MD). Numbers and sizes of Aβ deposits were also counted automatically. Measurements from 5 sections per mouse were averaged and the individual mouse average was used to calculate the group means.

γ-secretase (NotchΔE) = test: NICD production (S3 cleavage of NotchΔE) in transfected HEK293 cells; conditions: HEK293 cells expressing NotchΔE, 20 h, up to 30 μM
Method: HEK293 cells (700,000 cells per assay condition) were transiently transfected with a NotchΔE, myc-tagged construct to produce a truncated Notch1 substrate, which is constitutively cleaved by γ-secretase (S3 cleavage) [62]. Control transfections were performed with an empty vector. […] The amounts of NICD and total Notch were quantified and NICD was expressed as a percentage of total Notch. The DMSO control condition was set at 100%. Cell viability was determined using the CellTiter-Blue® Cell Viability Assay (Promega).

O=C(O)[C@H](CC1CCC1)c1cc(Cl)c(OCC(F)(F)F)c(-c2ccc(C(F)(F)F)cc2)c1 [EVP-0015962, (R)-2-(5-chloro-6-(2,2,2-trifluoroethoxy)-4’-(trifluoromethyl)biphenyl-3-yl)-3-cyclobutylpropanoic acid]
IC50 [1]: 5.56 ± 0.51 µM
IC50 at 24 h [2]: > 30 µM
EphA4 CTF accumulation (γ-secretase (EphA4)): did not result in EphA4 CTF accumulation
genotype-associated deficit in percent freezing (CFC) (Tg2576 mice [3]; 20 or 60 mg/kg/day in food, 11 weeks (p < 0.01)): reversed
genotype-associated deficit in percent freezing (CFC) (Tg2576 mice [3]; single dose 30 mg/kg p.o., 3 h prior to training): did not reverse this deficit
Full length APP (γ-secretase; 1 nM to 10 μM): not altered
accumulation of APP α- or β-CTFs (γ-secretase; concentrations up to 10 μM): did not cause the accumulation
production of AICD from APP β-CTF [4]: did not prevent
6E10 Aβ plaque Number/mm^2 (Tg2576 mice [5]; hippocampus, 20 mg/kg/day): 61.0 (12.2)* percent of control
6E10 Aβ plaque Size (μm^2) (Tg2576 mice [5]; hippocampus, 20 mg/kg/day): 99.4 (15.7) percent of control
6E10 Aβ plaque percent area (Tg2576 mice [5]; hippocampus, 20 mg/kg/day): 62.1 (13.2)* percent of control
ThioflavinS Aβ plaque Number/mm^2 (Tg2576 mice [5]; hippocampus, 20 mg/kg/day): 55.2 (15.6)* percent of control
ThioflavinS Aβ plaque Size (μm^2) (Tg2576 mice [5]; hippocampus, 20 mg/kg/day): 56.5 (16.3) percent of control
ThioflavinS Aβ plaque percent area (Tg2576 mice [5]; hippocampus, 20 mg/kg/day): 40.7 (16.9)** percent of control
6E10 Aβ plaque Number/mm^2 (Tg2576 mice [5]; hippocampus, 60 mg/kg/day): 53.9 (16.8)* percent of control
6E10 Aβ plaque Size (μm^2) (Tg2576 mice [5]; hippocampus, 60 mg/kg/day): 104.1 (11.6) percent of control
6E10 Aβ plaque percent area (Tg2576 mice [5]; hippocampus, 60 mg/kg/day): 53.1 (15.2)* percent of control
ThioflavinS Aβ plaque Number/mm^2 (Tg2576 mice [5]; hippocampus, 60 mg/kg/day): 50.7 (12.8)* percent of control
ThioflavinS Aβ plaque Size (μm^2) (Tg2576 mice [5]; hippocampus, 60 mg/kg/day): 58.9 (27.0) percent of control
ThioflavinS Aβ plaque percent area (Tg2576 mice [5]; hippocampus, 60 mg/kg/day): 27.3 (6.5)** percent of control
6E10 Aβ plaque Number/mm^2 (Tg2576 mice [5]; neocortex, 20 mg/kg/day): 65.2 (8.8) percent of control
6E10 Aβ plaque Size (μm^2) (Tg2576 mice [5]; neocortex, 20 mg/kg/day): 105.5 (8.8) percent of control
6E10 Aβ plaque percent area (Tg2576 mice [5]; neocortex, 20 mg/kg/day): 69.2 (9.7) percent of control
ThioflavinS Aβ plaque Number/mm^2 (Tg2576 mice [5]; neocortex, 20 mg/kg/day): 64.3 (8.0) percent of control
ThioflavinS Aβ plaque Size (μm^2) (Tg2576 mice [5]; neocortex, 20 mg/kg/day): 87.8 (12.2) percent of control
ThioflavinS Aβ plaque percent area (Tg2576 mice [5]; neocortex, 20 mg/kg/day): 64.3 (14.3) percent of control
6E10 Aβ plaque Number/mm^2 (Tg2576 mice [5]; neocortex, 60 mg/kg/day): 71.3 (15.0) percent of control
6E10 Aβ plaque Size (μm^2) (Tg2576 mice [5]; neocortex, 60 mg/kg/day): 88.5 (5.4) percent of control
6E10 Aβ plaque percent area (Tg2576 mice [5]; neocortex, 60 mg/kg/day): 65.3 (16.3) percent of control
ThioflavinS Aβ plaque Number/mm^2 (Tg2576 mice [5]; neocortex, 60 mg/kg/day): 59.6 (14.1) percent of control
ThioflavinS Aβ plaque Size (μm^2) (Tg2576 mice [5]; neocortex, 60 mg/kg/day): 58.1 (10.6)* percent of control
ThioflavinS Aβ plaque percent area (Tg2576 mice [5]; neocortex, 60 mg/kg/day): 29.9 (7.3)* percent of control
levels of NICD produced (γ-secretase (NotchΔE)): did not affect
